Measured values taken from patent US6362236B1, “Inhibition of lipoprotein oxidation” (Warner-Lambert Company, priority 1997, dated 2002).

Assays:
[1] = Free radical scavenging capacity (DPPH assay); details: 20 μM; after 300 seconds of incubation
Description: Free radical scavenging capacity—The free radical scavenging capacities of the drugs were analyzed by the 1,1-diphenyl-2-picryl-hydrazyl (DPPH) assay. Each drug (20 μM) was mixed with 3 mL of 0.1 nmol DPPH/1 (in ethanol). The time course of the change in the optical density at 517 nm was then kinetically monitored.

LDL [2] = experiment: Copper ion (CuSO4)-induced LDL oxidation; type: biochemical, human; details: for inhibition of LDL oxidation measured by the TBARS assay, CuSO4 system: 10 μM compound, 10 μM CuSO4, 4 hours at 37° C., LDL 100 μg of protein/mL; for LDL-associated peroxides content, CuSO4 system: control LDL 710±51
LDL [3] = experiment: LDL oxidation in all oxidative systems studied (CuSO4, AAPH, J-774A.1 macrophages), summary statements; type: biochemical, human; details: for inhibition of lipid peroxidation induced by copper ions, AAPH or J-774A.1 macrophages: pharmacological concentrations, summary over systems; for inhibition of LDL oxidation in all oxidative systems studied (in words): CuSO4, AAPH and J-774A.1 macrophage systems
HDL = experiment: CuSO4-induced HDL oxidation; details: for inhibition of HDL oxidation in the presence of CuSO4: 10 μM CuSO4; for CuSO4-Induced HDL Oxidation, MDA / CuSO4-Induced HDL Oxidation, Peroxides: 10 μM drug, 10 μM CuSO4, 4 hours at 37° C.; for CuSO4-Induced HDL Oxidation, MDA: Control 9.1 ± 0.1; for CuSO4-Induced HDL Oxidation, Peroxides: Control 122 ± 14
[4] = test system: HDL-associated paraoxonase; experiment: HDL-associated paraoxonase activity after CuSO4-induced HDL oxidation; type: biochemical, human; details: for protection of HDL-associated paraoxonase: HDL oxidized with CuSO4, versus HDL oxidized without drug; for Paraoxonase Specific Activity: after CuSO4-induced HDL oxidation, before incubation 50±3
From the text: . One unit of paraoxonase activity produces 1 nmol of p-nitrophenol per minute.

VLDL [5] = experiment: Lipoprotein electrophoresis of VLDL after copper ion-induced oxidation; type: biochemical, human; details: 10 μM CuSO4
Description: Lipoprotein electrophoresis—Lipoproteins (100 μg protein/mL) were incubated without or with the drugs followed by oxidation in the presence of 10 μM CuSO4. Then, electrophoresis of the lipoproteins was performed on 1% agarose using a Hydragel-Lipo kit (Sebia, France).

LDL [6] = experiment: AAPH (free radical generator)-induced LDL oxidation; type: biochemical, human; details: for inhibition of LDL oxidation measured by the TBARS assay, AAPH system: 10 μM compound, 5 mM AAPH, 4 hours at 37° C.; for LDL-associated peroxides content, AAPH system: control LDL 990±89
VLDL [7] = experiment: Copper ion (CuSO4)-induced VLDL oxidation; details: for inhibition of VLDL oxidation (TBARS), copper ion oxidative system: 10 μM compound, 4 hours at 37° C.; for VLDL-associated peroxide content, CuSO4 system: control VLDL 1818±333
VLDL [8] = experiment: AAPH-induced VLDL oxidation; details: for inhibition of VLDL oxidation (TBARS), AAPH oxidative system: 10 μM compound, 4 hours at 37° C.; for VLDL-associated peroxide content, AAPH system: control VLDL 2169±329
[9] = test system: J-774 A.1 murine macrophages-like cell line; details: 10 μM compound; J-774 A.1 cells, 2 μM CuSO4, 20 hours
Description: The macrophages were grown in Dulbecco's Modified Eagles Medium (DMEM) supplemented with 5% heat inactivated fetal calf serum (FCS). For the lipoprotein oxidation studies, cells (1×10^6/35 mm dish) were incubated with LDL (100 μg of protein/mL) in RPMI medium (without phenol red) in the presence of 2 μM CuSO4 for 20 hours at 37° C. in the incubator. Control LDL was also incubated in a cell-free system under the same conditions. At the end of the incubation period, the extent of LDL oxidation was measured in the medium (after centrifugation at 1000×g for 10 minutes) by the TBARS assay. Cell-mediated oxidation of LDL was calculated by subtracting the values obtained in the cell-free system from those obtained with the cells.

[10] = Description: For the lipid peroxidation experiments, 500 μL of membrane vesicles were enriched with dilinoleoyl phosphatidylcholine (DLPC) at a concentration of 1.0 mg DLPC/mL. […] The extent of lipid peroxidation in each sample was determined by a spectrophotometric assay for lipid peroxides in serum lipoproteins using a color reagent known as CHOD-iodide (Merck, Darmstadt, FRG, Merck Cat. No. 14106). The color reagent has the following composition:
The concentration of triiodide formed was measured spectrophotometrically according to the formula (L=lipoprotein) [formula]
To each of the withdrawn aliquots of membrane vesicles was added 1.0 mL of the CHOD color reagent, and the sample was incubated in the absence of light for 4 hours. […] Lipid peroxide formation was measured in triplicate and values were expressed as mean±SD. The significance of differences between results from different experimental conditions was tested using the two-tailed student t-test.

Molecule	reduction in the absorbance at 517 nm (DPPH assay) [1]	inhibition of lipid peroxidation induced by copper ions, AAPH or J-774A.1 macrophages (LDL [3])	inhibition of HDL oxidation in the presence of CuSO4 (HDL)	protection of HDL-associated paraoxonase [4]	inhibition of LDL oxidation measured by the TBARS assay, AAPH system (LDL [6]) [%]	LDL-associated peroxides content, AAPH system (LDL [6]) [nmol/mg LDL protein]	inhibition of VLDL oxidation (TBARS), copper ion oxidative system (VLDL [7])	VLDL-associated peroxide content, CuSO4 system (VLDL [7]) [nmol/mg VLDL protein]	inhibition of LDL oxidation measured by the TBARS assay, CuSO4 system (LDL [2]) [%]	LDL-associated peroxides content, CuSO4 system (LDL [2]) [nmol/mg LDL protein]	inhibition of LDL oxidation in all oxidative systems studied (in words) (LDL [3])	inhibition of VLDL oxidation (TBARS), AAPH oxidative system (VLDL [8])	VLDL-associated peroxide content, AAPH system (VLDL [8]) [nmol VLDL protein]	inhibition of LDL oxidation measured by the TBARS assay, macrophage system [9] [%]	CuSO4-Induced HDL Oxidation, MDA (HDL; Table 1) [nmoL/mg HDL Protein]	CuSO4-Induced HDL Oxidation, Peroxides (HDL; Table 1) [nmoL/mg HDL Protein]	Paraoxonase Specific Activity ([4]; Table 1, Control 26 ± 2) [nmoL/mg HDL Protein/min]	also measured
Cc1ccc(C)c(OCCCC(C)(C)C(=O)O)c1 [gemfibrozil, reference compound]	not gemfibrozil itself	not inhibited	no effect	no effect														lag time for the initiation of LDL oxidation (conjugated dienes formation) (LDL [2]; gemfibrozil experiment, LDL alone 60±9): 60 ± 9 min; CuSO4-Induced HDL Oxidation, MDA (HDL; Table 2): 8.2 ± 0.4 nmoL/mg HDL Protein; CuSO4-Induced HDL Oxidation, Peroxides (HDL; Table 2): 134 ± 13 nmoL/mg HDL Protein; Paraoxonase Specific Activity ([4]; Table 2, Control 26 ± 3): 27 ± 5 nmoL/mg HDL Protein/min
vitamin E	95%																	
CC(C)c1c(C(=O)Nc2ccccc2O)c(-c2ccccc2)c(-c2ccc(F)cc2)n1CC[C@@H](O)C[C@@H](O)CC(=O)O [ortho-hydroxy metabolite, ortho-hydroxy atorvastatin]	37%		completely inhibited	54%	44	554±32	79%	242±22	73	192±15	inhibited	43%	1228±210	50	0.2 ± 0.1	9 ± 1	40 ± 4	lipoprotein electrophoretic migration of oxidized VLDL (VLDL [5]): reduce lipoprotein electrophoretic migration; inhibitory effect on copper ion-induced LDL oxidation (TBARS) (LDL [2]; metabolite I of gemfibrozil 3 μM, ortho-hydroxy metabolite of atorvastatin 4 μM, alone or in combination, 10 μM CuSO4, 4 hours): 43%
CC(C)c1c(C(=O)Nc2ccc(O)cc2)c(-c2ccccc2)c(-c2ccc(F)cc2)n1CC[C@@H](O)C[C@@H](O)CC(=O)O [para-hydroxy metabolite, para-hydroxy atorvastatin]	28%		about 50%	27%	34	624±38	37%	1088±310	60	284±13	inhibited	16%	1819±228	46	4.5 ± 0.3	65 ± 9	33 ± 3	inhibition of lipid peroxidation in membrane vesicles ([10]; 10.0 μM compound): 80%; comparative antioxidant potency versus Vitamin E and probucol ([10]; FIG. 12): significantly more active; antioxidant activity under atherosclerotic-like conditions of elevated membrane cholesterol ([10]; FIG. 13): increased; levels of lipid peroxidation inhibited ([10]; at concentrations as low as 10.0 μM): > 10^2 μM
CC(C)c1c(C(=O)Nc2ccccc2)c(-c2ccccc2)c(-c2ccc(F)cc2)n1CC[C@@H](O)C[C@@H](O)CC(=O)O [atorvastatin, reference compound]	not by atorvastatin	not inhibited					no effect					no effect			9.6 ± 0.5	122 ± 15	29 ± 4	
